What was measured:
[1] = biological target: 72 kDa type IV collagenase (Homo sapiens, UniProt P08253); test: Inhibition of Gelatinase A, matrix metalloprotease-2
L1210 = test: Compound was evaluated for the inhibitory activity against L1210 cell lines; format: functional, cell-based; conditions: Mus musculus
[2] = biological target: Matrix metalloproteinase-9 (Homo sapiens, UniProt P14780); test: Inhibition of Gelatinase B, matrix metalloprotease-9
Sequence of Matrix metalloproteinase-9 (P14780 whole entry): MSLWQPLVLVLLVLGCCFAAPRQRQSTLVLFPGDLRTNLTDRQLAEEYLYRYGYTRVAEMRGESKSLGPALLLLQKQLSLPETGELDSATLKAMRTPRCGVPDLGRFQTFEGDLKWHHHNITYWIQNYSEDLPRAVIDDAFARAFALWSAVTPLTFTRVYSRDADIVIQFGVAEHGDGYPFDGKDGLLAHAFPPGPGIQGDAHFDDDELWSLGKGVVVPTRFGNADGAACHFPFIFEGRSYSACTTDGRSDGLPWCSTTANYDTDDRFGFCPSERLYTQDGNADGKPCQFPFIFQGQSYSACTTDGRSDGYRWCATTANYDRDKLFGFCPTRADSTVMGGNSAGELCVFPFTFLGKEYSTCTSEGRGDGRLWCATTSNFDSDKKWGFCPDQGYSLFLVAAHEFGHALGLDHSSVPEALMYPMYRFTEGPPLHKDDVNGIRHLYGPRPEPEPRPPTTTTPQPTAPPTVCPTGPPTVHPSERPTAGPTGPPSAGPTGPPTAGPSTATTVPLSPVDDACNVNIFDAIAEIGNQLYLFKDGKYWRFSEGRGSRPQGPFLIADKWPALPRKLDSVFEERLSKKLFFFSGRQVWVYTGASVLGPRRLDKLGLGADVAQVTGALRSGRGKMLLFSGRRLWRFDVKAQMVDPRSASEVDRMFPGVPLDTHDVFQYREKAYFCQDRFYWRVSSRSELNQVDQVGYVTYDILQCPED

Sequence of 72 kDa type IV collagenase (P08253 whole entry): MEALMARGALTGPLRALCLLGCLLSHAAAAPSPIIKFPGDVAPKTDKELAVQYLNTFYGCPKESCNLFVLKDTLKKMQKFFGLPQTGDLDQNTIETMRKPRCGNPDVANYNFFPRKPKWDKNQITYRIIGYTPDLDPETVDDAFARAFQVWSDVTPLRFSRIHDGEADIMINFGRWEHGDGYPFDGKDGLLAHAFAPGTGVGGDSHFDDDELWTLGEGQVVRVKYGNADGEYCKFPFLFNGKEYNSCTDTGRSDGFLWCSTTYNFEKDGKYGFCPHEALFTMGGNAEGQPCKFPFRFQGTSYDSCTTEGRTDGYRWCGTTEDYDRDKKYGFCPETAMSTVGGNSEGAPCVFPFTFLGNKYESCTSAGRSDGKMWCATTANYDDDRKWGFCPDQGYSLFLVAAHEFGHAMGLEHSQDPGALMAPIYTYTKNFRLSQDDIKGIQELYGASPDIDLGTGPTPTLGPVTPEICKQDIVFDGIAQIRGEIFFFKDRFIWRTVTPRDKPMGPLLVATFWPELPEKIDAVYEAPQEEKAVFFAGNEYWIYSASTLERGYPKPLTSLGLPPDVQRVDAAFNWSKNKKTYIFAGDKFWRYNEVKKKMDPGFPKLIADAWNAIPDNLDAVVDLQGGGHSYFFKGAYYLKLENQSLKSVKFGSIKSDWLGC

With CNC(=O)[C@H](Cc1ccccc1)NC(=O)[C@H]1[C@@H](COCC(=O)NO)[C@@H]1CSc1ccccc1 the IC50 [1] was 32 µM, the IC50 (L1210) was over 1 mM and the IC50 [2] was 36 µM.
